The experiment concerns the target T1, human TRPA1 (hTRPA1) (Homo sapiens, UniProt O75762).
T1 construct: wild-type hTRPA1 in HEK cells
Description: Fura-2 Ca2+ imaging and whole-cell patch clamp in HEK-hTRPA1 cells; C621S and F669M mutants reduce response. It is filed as cell-based. For orientation: In patch-clamp work, channel activity is measured electrically.

Molecules are shown by their SMILES.

T1 sequence (O75762 whole entry): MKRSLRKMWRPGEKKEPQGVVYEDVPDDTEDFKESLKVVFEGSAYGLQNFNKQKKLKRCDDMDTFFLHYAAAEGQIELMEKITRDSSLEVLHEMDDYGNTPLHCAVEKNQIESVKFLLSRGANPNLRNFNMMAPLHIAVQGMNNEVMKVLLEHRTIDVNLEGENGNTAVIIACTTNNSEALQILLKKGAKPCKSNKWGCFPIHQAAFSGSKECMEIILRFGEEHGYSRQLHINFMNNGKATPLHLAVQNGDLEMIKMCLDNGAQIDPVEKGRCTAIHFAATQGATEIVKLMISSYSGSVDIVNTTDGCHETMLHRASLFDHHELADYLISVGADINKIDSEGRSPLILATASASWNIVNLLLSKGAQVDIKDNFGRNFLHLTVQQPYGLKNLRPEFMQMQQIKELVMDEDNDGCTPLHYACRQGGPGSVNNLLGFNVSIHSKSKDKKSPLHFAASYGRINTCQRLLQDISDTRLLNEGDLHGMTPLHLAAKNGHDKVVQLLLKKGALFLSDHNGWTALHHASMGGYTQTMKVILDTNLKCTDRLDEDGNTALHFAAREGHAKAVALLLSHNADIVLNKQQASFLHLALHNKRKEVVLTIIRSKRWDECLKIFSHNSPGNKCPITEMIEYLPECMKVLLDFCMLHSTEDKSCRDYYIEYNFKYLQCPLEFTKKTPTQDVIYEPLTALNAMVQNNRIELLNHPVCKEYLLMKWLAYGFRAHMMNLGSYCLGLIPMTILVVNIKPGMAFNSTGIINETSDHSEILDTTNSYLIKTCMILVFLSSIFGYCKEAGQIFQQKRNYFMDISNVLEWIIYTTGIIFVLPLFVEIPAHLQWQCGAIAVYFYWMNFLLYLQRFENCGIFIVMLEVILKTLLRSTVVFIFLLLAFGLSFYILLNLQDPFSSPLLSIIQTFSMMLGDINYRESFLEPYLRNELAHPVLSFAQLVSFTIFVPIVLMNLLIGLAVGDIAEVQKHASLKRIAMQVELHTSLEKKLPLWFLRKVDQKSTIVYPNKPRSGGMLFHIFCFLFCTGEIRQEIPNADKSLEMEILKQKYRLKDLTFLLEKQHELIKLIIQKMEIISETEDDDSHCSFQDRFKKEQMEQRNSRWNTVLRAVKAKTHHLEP

One may read the EC50 as the midpoint of the concentration-response curve. A higher EC50 goes with lower potency in that assay. Turning to `COCCCN(C(=O)CCl)c1nc(-c2ccc(OC)cc2)cs1` [JT010], the EC50 is approximately 10 nM.

These data come from publication PMC9695908, “Potent Activation of Human but Not Mouse TRPA1 by JT010” (International Journal of Molecular Sciences, 2022).
